# From patent US8530501B2, “Salts and crystalline forms of a factor Xa inhibitor” (Millennium Pharmaceuticals, Inc., priority 2009, dated 2013)
# Assays:
# [1] = Thermodynamic aqueous solubility by HPLC (filtration method); assay type: physicochemical; settings: for pH: pH of the solubility suspension; for pH (with aqueous solubility): pH of suspension
# Procedure: The aqueous thermodynamic solubility of selected salt forms was measured using the filtration method as described in Example 10.
# The suspension was equilibrated at 25° C. for 24 hours then the pH was measured. The suspension was then filtered through a glass fiber C filter into a 96 well plate. The filtrate was then diluted by a factor of 101. Quantitation was by HPLC with reference to a standard solution of approximately 0.1 mg/mL in DMSO. Different volumes of the standard, diluted and undiluted sample solutions were injected. The solubility was calculated using the peak areas determined by integration of the peak found at the same retention time as the principal peak in the standard injection.
# [2] = Stability on storage at 40° C./75% RH (XRPD, HPLC purity); assay type: physicochemical; settings: for physical stability: 6 months of storage at 40° C./75% RH; for stability with respect to solid form and chemical purity: 40° C./75% RH (elevated humidity and temperature); for crystallinity upon storage (XRPD): 40° C./75% RH, no change in solid form; for Purity post 40° C./75% RH: HPLC purity after seventeen days at 40° C./75% RH; for Purity as isolated: HPLC purity pre 40° C./75% RH; for drop in chemical purity: upon storage at 40° C./75% RH
# From the text: […] No significant thermal events were seen before degradation began for both the phosphate salt and the 1-hydroxy-2-naphthoate salts.
# [3] = Pharmacokinetics in dog after IV and PO administration; assay type: in vivo, male beagle dogs; settings: PO 5 mg/kg, dose-normalized AUC(0-inf), mean ± SD
# Procedure: (§1) For the dog and monkey study, Compound I was also used. An IV and PO dose of Compound I (1.0 and 5.0 mg/kg, respectively) was prepared. The IV dose was formulated similarly to that used in the rat study (50% PEG300 in water). The PO dose was suspended in 0.5% methylcellulose at a concentration of 1.0 mg/mL with a final pH of approximately 3.50.
# (§2) A total of six male Sprague-Dawley rats (n=3/dosing group) from Charles River Laboratories (Hollister, Calif.), three male beagle dogs from Marshall BioResources (North Rose, N.Y.) and three male rhesus monkeys were utilized. […]
# (§3) All animals were dosed based on individual weights with a PO gavage volume of 5.0 mL/kg and an IV bolus dose volume of 1.0 mL/kg. […] At collection times, urine volume and water consumption was recorded. […]
# (§4) Plasma and urine samples were analyzed for Compound I concentration using a liquid chromatography tandem mass spectrometry (LC/MS/MS). […] The peak areas of the m/z 411→250 product ion (Compound I) were measured against those of the m/z 470→342 product ion (N-(2-(5-chloropyridin-2-ylcarbaomoyl)-4-methoxyphenyl)-4-(N,N-dimethylcarbamimidoyl)-2-fluorobenzamide) in positive ion mode. […]
# (§5) Sample Compound I concentrations below the lower limit of quantitation (LLQ) were reported as <0.500 ng/mL. […]
# [4] = Pharmacokinetics in monkey after IV and PO administration; assay type: in vivo, male rhesus monkeys; settings: PO 5 mg/kg, dose-normalized AUC(0-inf), mean ± SD
# Procedure: as §1, §2, §3, §4, §5
# [5] = Pharmacokinetics in rat after IV and PO administration; assay type: in vivo, male Sprague-Dawley rats; settings: mean ± SD
# Procedure: Compound I was used in the rat investigation. An intravenous (IV) and oral (PO) dose of Compound I (1.0 and 10 mg/kg, respectively) was prepared. The IV dose was solubilized in 50% PEG300 to yield a final concentration of 1.0 mg/mL with a final pH of 5.13. The PO dose was suspended in 0.5% methylcellulose at a concentration of 2.0 mg/mL with a final pH of 2.70.
# as §2, §3, §4, §5
# [6] = Gravimetric Vapour Sorption (GVS); assay type: physicochemical; settings: for Hygroscopicity: moisture absorbed by weight: between 0 and 90% relative humidity; for physical stability after moisture exposure (XRPD pre- and post-GVS): exposed up to 90% RH at 25° C.
# Procedure: Sorption isotherms were obtained using a SMS HT-DVS moisture sorption analyser by Surface Measurement Systems Limited, Middlesex, UK, controlled by SMS Analysis Suite software. The sample temperature was maintained at 25° C. by the instrument controls. The humidity was controlled by mixing streams of dry and wet nitrogen, with a total flow rate of 400 mL/min. The relative humidity was measured by a calibrated optical dew point transmitter (dynamic range of 0.5-100% RH), located near the sample. The weight change, (mass relaxation) of the sample as a function of % RH was constantly monitored by the microbalance (accuracy±0.005 mg).
# Typically 5-20 mg of sample was placed in a tared mesh stainless steel liner within a stainless steel pan under ambient conditions. The sample was loaded and unloaded at 40% RH and 25° C. (typical room conditions).
# A moisture sorption isotherm was performed as outlined in Table 13 (2 scans giving 1 complete cycle). The standard isotherm was performed at 25° C. at 10% RH intervals over a 0.5-90% RH range.
# The sample was recovered after completion of the isotherm and re-analysed by XRPD.
# [7] = Thermodynamic aqueous solubility by HPLC (ultracentrifugation method); assay type: physicochemical
# Procedure: The physical chemical properties of Forms A and B were determined according to the procedures below and the data are summarized in Table 12.
# The mixture was allowed to equilibrate for at least 48 hours at 37° C. under mild agitation. At each 24-48 hour interval, an aliquot was removed and the solution was separated from the solid via ultracentrifugation at >60,000 rpm for 20 min and then analyzed by HPLC for the concentration of the compound in the supernatant. Upon equilibration (concentration plateau is reached), the concentration was reported as solubility. This method is the preferred method in determining solubility as it attains the equilibrium and is measurement of the thermodynamic solubility.
# [8] = pKa determination (Sirius GlpKa); assay type: physicochemical; settings: 25° C.
# Procedure: Data were collected on a Sirius GlpKa instrument by Sirius Analytical Ltd., UK with a D-PAS attachment. Measurements were made at 25° C. in aqueous solution by UV and in methanol water mixtures by potentiometry. The titration media was ionic-strength adjusted (ISA) with 0.15 M KCl (aq). The values found in the methanol water mixtures were corrected to 0% co-solvent via a Yasuda-Shedlovsky extrapolation. The data were refined using Refinement Pro software v1.0. Prediction of pKa values was made using ACD pKa prediction software v9.
# [9] = Log P and Log D determination (potentiometric titration, octanol:ISA water); assay type: physicochemical; settings: octanol/ionic-strength adjusted (ISA) water
# From the text: Data were collected by potentiometric titration on a Sirius GlpKa instrument using three ratios of octanol:ionic-strength adjusted (ISA) water to generate Log P, Log Pion, and Log D values. The data were refined using Refinement Pro software v1.0. Prediction of Log P values was made using ACD v9 and Syracuse KOWWIN™ v1.67 software by Syracuse Research Corp., Syracuse, N.Y., USA.
# [10] = Table 8, filtration method, water, 25° C., 24 hours
# [11] = listed as 1-Hydroxy-2-naphthoate 2-5
Compound,physical stability [2],Hygroscopicity: moisture absorbed by weight [6],physical stability after moisture exposure (XRPD pre- and post-GVS) [6],pH of saturated solution [7],Aqueous Solubility (Ultracentrifugation Method) ([7]; in simulated gastric fluid),Aqueous Solubility (Ultracentrifugation Method) ([7]; in simulated intestinal fluid) [mg/mL in simulated],Aqueous Solubility (Ultracentrifugation Method) ([7]; in water) [mg/mL in water],"Aqueous solubility [1, 10] [µg/mL]",pH ([1]; Table 8),stability with respect to solid form and chemical purity [2],crystallinity upon storage (XRPD) [2],hygroscopicity (GVS) [6],further results
"O=C(NCc1cn(-c2ccc(-n3ccccc3=O)cc2)cn1)c1ccc(Cl)s1 [Compound I, 5-chloro-N-((1-(4-(2-oxopyridin-1(2H)-yl)phenyl)-1H-imidazol-4-yl)methyl)thiophene-2-carboxamide]",physically stable,,,,,,,,,,,,"Aqueous solubility ([1]; Table 8, filtration method, water, 25° C., 24 hours, listed as Free base): 0.8 µg/mL; pH ([1]; Table 8, listed as Free base): 7.8; AUC/D [3]: 1095 ± 295 kg·h/mL; AUC/D [4]: 8430 ± 3449 kg·h/mL; Dose excreted unchanged in urine ([5]; IV 1 mg/kg): 0.248 ± 0.019%; AUC/D ([5]; PO 10 mg/kg, dose-normalized AUC(0-inf)): 6859 ± 1249 kg·h/mL"
O=C(NCc1cn(-c2ccc(-n3ccccc3=O)cc2)cn1)c1ccc(Cl)s1 [Mesylate Form B],,Absorbs approximately 2.5%,good physical stability,2.7,12 mg/mL in simulated gastric,0.06,8.5,,,,,,
O=C(NCc1cn(-c2ccc(-n3ccccc3=O)cc2)cn1)c1ccc(Cl)s1 [Mesylate Form A],physically stable,Absorbs approximately 2.5%,good physical stability,3.3,1.3 mg/mL in simulated gastric,0.02,2.0,5100,1.8,,,,"pKa [8]: 4.46; solubility at 24 h ([1]; water, 25 °C, pH 1.8, water, thermodynamic from solid, at pH 1.8): 5100 µg/mL; GVS uptake ([6]; at 90% RH): 2.8 wt %; hysteresis in GVS ([6]; listed as mesylate salt): no hysteresis evident; logP [9]: 2.25; logD ([9]; pH 7.4): 2.85"
O=C(NCc1cn(-c2ccc(-n3ccccc3=O)cc2)cn1)c1ccc(Cl)s1 [1-Hydroxy-2-naphthoate Form 1],,,,,,,,50,6.0,stable,loss of crystallinity,Neither salts showed hygroscopicity,"pH (with aqueous solubility) ([1]; salts formed under reflux conditions, listed as 1-hydroxy-2-napthoic acid MeCN): pH = 5.99; Aqueous solubility ([1]; salts formed under reflux conditions, water, listed as 1-hydroxy-2-napthoic acid MeCN): 44 µg/mL; pH (with aqueous solubility) ([1]; salts from 100-mg maturation experiments, listed as 2-5): pH = 6.50; Aqueous solubility ([1]; salts from 100-mg maturation experiments, water, listed as 2-5): 68 µg/mL; Purity post 40° C./75% RH [2, 11]: 97.7%; Purity as isolated [2, 11]: 98.2%; drop in chemical purity ([2]; listed as 1-hydroxy-2-naphthoate salt): 0.5%; physical stability after moisture exposure (XRPD pre- and post-GVS) ([6]; listed as 1-hydroxy-2-naphthoate salt of Compound I): substantially stable; hysteresis in GVS ([6]; listed as 1-hydroxy-2-naphthoate salt Form 1): showed any hysteresis"
O=C(NCc1cn(-c2ccc(-n3ccccc3=O)cc2)cn1)c1ccc(Cl)s1 [Phosphate Form 3],,,,,,,,6900,2.2,stable,loss of crystallinity,,"pH (with aqueous solubility) ([1]; salts from 100-mg maturation experiments, listed as 2-4): pH = 2.18; Aqueous solubility ([1]; salts from 100-mg maturation experiments, water, listed as 2-4): 6900 µg/mL; Purity post 40° C./75% RH ([2]; listed as Phosphate 2-4): 97.3%; Purity as isolated ([2]; listed as Phosphate 2-4): 98.0%; drop in chemical purity [2]: 0.7%"
O=C(NCc1cn(-c2ccc(-n3ccccc3=O)cc2)cn1)c1ccc(Cl)s1 [Phosphate Form 2],,,,,,,,4100,2.0,stable,,Neither salts showed hygroscopicity,"pH (with aqueous solubility) ([1]; salts formed under reflux conditions, listed as Phosphoric acid MeCN): pH = 2.00; Aqueous solubility ([1]; salts formed under reflux conditions, water, listed as Phosphoric acid MeCN): 4100 µg/mL"
